According to PubChem BioAssay AID1845199 (Molecular Pharmacology Branch, DTP, NCI, 2023):

Test system: 556581-035-R-J1 tumor spheroid viability, % test/control
Assay: Anticancer human tumor 556581-035-R-J1 patient-derived ovarian carcinoma cell line growth inhibition
Settings: spheroids with HUVEC and MSC; for IC50: curve of first compound; for viability, T/C: stronger effect = lower value
Source text: Multicellular complex tumor spheroid response to DNA repair inhibitors in combination with DNA-damaging drugs
This study explores the anticancer activities of DNA-damaging drugs and inhibitors of DNA damage repair, both as single agents and in combinations. Complex tumor spheroids comprised of malignant cells, endothelial cells and mesenchymal stem cells served as an in vitro model for human solid tumors. This model system incorporates physiologically relevant features and patient-derived or established malignant cell lines with clinically relevant genetic alterations from many tumor types. Twenty-six patient-derived or established malignant cell lines were evaluated representing sarcoma, melanoma, small cell lung cancer (SCLC), non-small cell lung cancer (NSCLC), as well as bladder, ovarian and pancreatic cancers. The concentration ranges selected for each drug and investigational agent were based upon clinically achievable concentrations if the clinical Cmax of the agent was known.
Compounds. The drugs and compounds olaparib (NSC753686), talazoparib (NSC767125), berzosertib (NSC777718), elimusertib (NSC800525), nedisertib (NSC802822), VX-984 (NSC792969), AZD-1390 (NSC803789), temozolomide (NSC362856), topotecan (NSC609699), trabectedin (NSC813783), staurosporine (NSC755774), and gemcitabine (NSC613327) were obtained from the National Cancer Institute (NCI) Developmental Therapeutics Program Chemical Repository. The FDA-approved anticancer drug set is available from the Developmental Therapeutics Program at https://dtp.cancer.gov/organization/dscb/obtaining/available_plates.htm. […] The stock solutions were prepared in dimethyl sulfoxide (DMSO, Sigma-Aldrich, St. Louis, MO, cat. D2650) at 400-fold the tested concentration and stored at -70 degrees C. Prior to their use, the stock solutions were diluted in fresh medium and the final DMSO concentration in the assay was 0.25% (v/v). All drugs and investigational agents were tested over a range starting from a high concentration at or near the clinical Cmax and decreasing in half-log increments. If the clinical Cmax for an agent had not been determined, the highest concentration tested was 10 microM.
Cell Lines. The patient-derived cancer cell (PDC) lines: 156681-154-R-J1-PDC, 283228-195-R-J1-PDC, 287954-098-R-J1-PDC, 292921-168-R-J2-PDC, 349418-098-R-PDC, 425362-245-T-J1-PDC, 556581-035-R-J1-PDC, and BL0293-F563-PDC were received from the NCI Patient-Derived Models Repository (PDMR, https://pdmr.cancer.gov). The established cell lines HS-SY-2 (RRID:CVCL_8719), MPNST, and SYO-1 (RRID:CVCL_7146) were obtained from the Sloan Kettering Institute. The alveolar soft parts sarcoma cell line ASPS-1 (RRID:CVCL_S738) was established at the NCI and grown from internal seed stocks. The following established cell lines were purchased from the American Type Culture Collection (ATCC, Manassas, VA): G-401 (ATCC, cat. CRL-1441, RRID:CVCL_0270), SW982 (ATCC, cat. HTB-93, RRID:CVCL_1734), VA-ES-BJ (ATCC, cat. CRL-2138, RRID:CVCL_1785), NCI-H719 (ATCC, cat. CRL-5837, RRID:CVCL_1582), NCI-H196 (ATCC, cat. CRL-5823, RRID:CVCL_1509), NCI-H841 (ATCC, cat. CRL-5845, RRID:CVCL_1595), NCI-H1618 (ATCC, cat. CRL-5879, RRID:CVCL_1480), NCI-H1876 (ATCC, cat. CRL-5902, RRID:CVCL_1503), DMS 114 (ATCC, cat. CRL-2066; RRID:CVCL_1174), NCI-H211 (ATCC, cat. CRL-5824; RRID:CVCL_1529), and SW 1271 (ATCC, cat. CRL-2177, RRID:CVCL_1716). The small cell lung cancer cell line COR-L88 was purchased from Sigma-Aldrich (cat. 92031917-1VL, RRID:CVCL_1141). The non-small cell lung cancer cell lines NCI-H226 (RRID:CVCL_1544) and NCI-H322M (RRID:CVCL_1557) were established at the NCI and grown from internal seed stocks. Pooled donor human umbilical vein endothelial cells (HUVEC, Lonza, cat. CC-2519) and human mesenchymal stem cells (hMSC, Lonza, cat. PT-2501) were purchased from Lonza (Walkersville, MD).
Cell Culture. All cells were maintained in an incubator at 37 degrees C and 5% CO2 with 95% humidity. […]
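Also: spheroids exposed to compounds for 7 days before viability read.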

`Cc1cc(C)c(CNC(=O)c2cc(-c3ccc(CN4CCOCC4)cc3)cc3c2cnn3C2CCCC2)c(=O)[nH]1` + Cn1nnc2c(C(N)=O)ncn2c1=O was tested, and the IC50 (second compound 1 µM) was > 10 µM, the IC50 (second compound 3.16 µM) was > 10 µM and the IC50 (second compound 10 µM) was > 10 µM. For the same compound, the IC50 (second compound 31.6 µM) was > 10 µM, the IC50 (second compound 100 µM) was > 10 µM and the viability, T/C (second compound 1 µM, first compound 0.0316 µM) was 105%. For the same compound, the viability, T/C (second compound 1 µM, first compound 0.1 µM) was 107%, the viability, T/C (second compound 1 µM, first compound 0.316 µM) was 110% and the viability, T/C (second compound 1 µM, first compound 1 µM) was 103%. It also gave a viability, T/C (second compound 1 µM, first compound 3.16 µM) of 110%, a viability, T/C (second compound 1 µM, first compound 10 µM) of 88% and a viability, T/C (second compound 3.16 µM, first compound 0.0316 µM) of 107%. It also gave a viability, T/C (second compound 3.16 µM, first compound 0.1 µM) of 108%, a viability, T/C (second compound 3.16 µM, first compound 0.316 µM) of 112% and a viability, T/C (second compound 3.16 µM, first compound 1 µM) of 108%. For the same compound, the viability, T/C (second compound 3.16 µM, first compound 3.16 µM) was 108%, the viability, T/C (second compound 3.16 µM, first compound 10 µM) was 88.2% and the viability, T/C (second compound 10 µM, first compound 0.0316 µM) was 118%. It also gave a viability, T/C (second compound 10 µM, first compound 0.1 µM) of 118%, a viability, T/C (second compound 10 µM, first compound 0.316 µM) of 111% and a viability, T/C (second compound 10 µM, first compound 1 µM) of 121%. For the same compound, the viability, T/C (second compound 10 µM, first compound 3.16 µM) was 114%, the viability, T/C (second compound 10 µM, first compound 10 µM) was 93.6% and the viability, T/C (second compound 31.6 µM, first compound 0.0316 µM) was 115%. The viability, T/C (second compound 31.6 µM, first compound 0.1 µM) was 105%, the viability, T/C (second compound 31.6 µM, first compound 0.316 µM) was 116% and the viability, T/C (second compound 31.6 µM, first compound 1 µM) was 108%. The viability, T/C (second compound 31.6 µM, first compound 3.16 µM) was 110%, the viability, T/C (second compound 31.6 µM, first compound 10 µM) was 86.1% and the viability, T/C (second compound 100 µM, first compound 0.0316 µM) was 113%. The viability, T/C (second compound 100 µM, first compound 0.1 µM) was 116%, the viability, T/C (second compound 100 µM, first compound 0.316 µM) was 107% and the viability, T/C (second compound 100 µM, first compound 1 µM) was 122%. For the same compound, the viability, T/C (second compound 100 µM, first compound 3.16 µM) was 109% and the viability, T/C (second compound 100 µM, first compound 10 µM) was 84.8%.
